Results taken from patent publication US20220081387A1, “METHODS FOR PREPARING AMMONIUM TETRATHIOMOLYBDATE” (Alexion Pharmaceuticals, Inc., priority 2019, published 2022).

Assay: Long-term stability study of ATTM samples, determined by HPLC
Type: physicochemical
Experimental: ATTM Samples 1 and 2 were prepared essentially according to procedure in Example 1 starting with 12 kg of ammonium heptamolybdate. The isolated product was packed and stored immediately. Specifically, the samples were packaged corresponding to the packaging of the bulk material under argon in transparent anti-static polyethylene plastic bags, 90 10 10, 110 mm×170 mm, and the bags containing the samples were sealed with a plastic tie, and then subsequently packed in welded aluminium bags along with a drying agent in-between the two bags. Additional samples were packaged with ambient atmosphere in transparent anti-static polyethylene plastic bags, 90 10 10, 110 mm×170 mm. The bags containing the samples were sealed with a plastic tie, and then subsequently packed in welded aluminium bags along with a drying agent in-between the two bags.

With `[NH4+].[NH4+].[SH-].[SH-].[S]=[Mo]=[S]` [Sample 2, ammonium tetrathiomolybdate] the “(NH4)6Mo7O24” value (5 °C, Air, 3 mo) was <0.05 w/w %, the ATTM (5 °C, Air, 3 mo) was 98.6 w/w % and the “Dimer S6” value (5 °C, Air, 3 mo) was <0.05 w/w %. The TM1 (5 °C, Air, 3 mo) was <0.05 w/w %, the TM2 (5 °C, Air, 3 mo) was <0.05 w/w % and the TM3 (5 °C, Air, 3 mo) was 1.13 w/w %. The “(NH4)6Mo7O24” value (5 °C, Air, 6 mo) was <0.05 w/w %, the ATTM (5 °C, Air, 6 mo) was 97.9 w/w % and the “Dimer S6” value (5 °C, Air, 6 mo) was <0.05 w/w %. The Insoluble materials (5 °C, Air, 6 mo) was <0.1 w/w %, the TM1 (5 °C, Air, 6 mo) was <0.05 w/w % and the TM2 (5 °C, Air, 6 mo) was <0.05 w/w %. For the same compound, the TM3 (5 °C, Air, 6 mo) was 0.95 w/w %, the “(NH4)6Mo7O24” value (5 °C, Air, Initial) was <0.05 w/w % and the ATTM (5 °C, Air, Initial) was 98.8 w/w %. For the same compound, the “Dimer S6” value (5 °C, Air, Initial) was <0.05 w/w %, the Insoluble materials (5 °C, Air, Initial) was <0.1 w/w % and the TM1 (5 °C, Air, Initial) was <0.05 w/w %. For the same compound, the TM2 (5 °C, Air, Initial) was <0.05 w/w %, the TM3 (5 °C, Air, Initial) was 1.01 w/w % and the “(NH4)6Mo7O24” value (5 °C, Ar, 3 mo) was <0.05 w/w %. The ATTM (5 °C, Ar, 3 mo) was 99.0 w/w %, the “Dimer S6” value (5 °C, Ar, 3 mo) was <0.05 w/w % and the TM1 (5 °C, Ar, 3 mo) was <0.05 w/w %. The TM2 (5 °C, Ar, 3 mo) was <0.05 w/w %, the TM3 (5 °C, Ar, 3 mo) was 0.99 w/w % and the “(NH4)6Mo7O24” value (5 °C, Ar, 6 mo) was <0.05 w/w %. For the same compound, the ATTM (5 °C, Ar, 6 mo) was 98.2 w/w %, the “Dimer S6” value (5 °C, Ar, 6 mo) was <0.05 w/w % and the Insoluble materials (5 °C, Ar, 6 mo) was <0.1 w/w %. The TM1 (5 °C, Ar, 6 mo) was <0.05 w/w %, the TM2 (5 °C, Ar, 6 mo) was <0.05 w/w % and the TM3 (5 °C, Ar, 6 mo) was 1.03 w/w %. For the same compound, the “(NH4)6Mo7O24” value (5 °C, Ar, Initial) was <0.05 w/w %, the ATTM (5 °C, Ar, Initial) was 98.8 w/w % and the “Dimer S6” value (5 °C, Ar, Initial) was <0.05 w/w %. For the same compound, the Insoluble materials (5 °C, Ar, Initial) was <0.1 w/w %, the TM1 (5 °C, Ar, Initial) was <0.05 w/w % and the TM2 (5 °C, Ar, Initial) was <0.05 w/w %. The TM3 (5 °C, Ar, Initial) was 1.01 w/w %, the “(NH4)6Mo7O24” value (−20 °C, Air, 3 mo) was <0.05 w/w % and the ATTM (−20 °C, Air, 3 mo) was 99.4 w/w %. The “Dimer S6” value (−20 °C, Air, 3 mo) was <0.05 w/w %, the TM1 (−20 °C, Air, 3 mo) was <0.05 w/w % and the TM2 (−20 °C, Air, 3 mo) was <0.05 w/w %. The TM3 (−20 °C, Air, 3 mo) was 0.92 w/w %, the “(NH4)6Mo7O24” value (−20 °C, Air, 6 mo) was <0.05 w/w % and the ATTM (−20 °C, Air, 6 mo) was 98.2 w/w %. For the same compound, the “Dimer S6” value (−20 °C, Air, 6 mo) was <0.05 w/w %, the Insoluble materials (−20 °C, Air, 6 mo) was <0.1 w/w % and the TM1 (−20 °C, Air, 6 mo) was <0.05 w/w %. For the same compound, the TM2 (−20 °C, Air, 6 mo) was <0.05 w/w %, the TM3 (−20 °C, Air, 6 mo) was 1.13 w/w % and the “(NH4)6Mo7O24” value (−20 °C, Air, Initial) was <0.05 w/w %. For the same compound, the ATTM (−20 °C, Air, Initial) was 98.8 w/w %, the “Dimer S6” value (−20 °C, Air, Initial) was <0.05 w/w % and the Insoluble materials (−20 °C, Air, Initial) was <0.1 w/w %. The TM1 (−20 °C, Air, Initial) was <0.05 w/w %, the TM2 (−20 °C, Air, Initial) was <0.05 w/w % and the TM3 (−20 °C, Air, Initial) was 1.01 w/w %. The “(NH4)6Mo7O24” value (−20 °C, Ar, 3 mo) was <0.05 w/w %, the ATTM (−20 °C, Ar, 3 mo) was 99.1 w/w % and the “Dimer S6” value (−20 °C, Ar, 3 mo) was <0.05 w/w %. For the same compound, the TM1 (−20 °C, Ar, 3 mo) was <0.05 w/w %, the TM2 (−20 °C, Ar, 3 mo) was <0.05 w/w % and the TM3 (−20 °C, Ar, 3 mo) was 1.07 w/w %. For the same compound, the “(NH4)6Mo7O24” value (−20 °C, Ar, 6 mo) was <0.05 w/w %, the ATTM (−20 °C, Ar, 6 mo) was 98.2 w/w % and the “Dimer S6” value (−20 °C, Ar, 6 mo) was <0.05 w/w %. For the same compound, the Insoluble materials (−20 °C, Ar, 6 mo) was <0.1 w/w %, the TM1 (−20 °C, Ar, 6 mo) was <0.05 w/w % and the TM2 (−20 °C, Ar, 6 mo) was <0.05 w/w %. The TM3 (−20 °C, Ar, 6 mo) was 0.98 w/w %, the “(NH4)6Mo7O24” value (−20 °C, Ar, Initial) was <0.05 w/w % and the ATTM (−20 °C, Ar, Initial) was 98.8 w/w %. The “Dimer S6” value (−20 °C, Ar, Initial) was <0.05 w/w %, the Insoluble materials (−20 °C, Ar, Initial) was <0.1 w/w % and the TM1 (−20 °C, Ar, Initial) was <0.05 w/w %. For the same compound, the TM2 (−20 °C, Ar, Initial) was <0.05 w/w % and the TM3 (−20 °C, Ar, Initial) was 1.01 w/w %.
